Consider nine compounds from PubChem BioAssay (NCI).

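Grown in 96-well plates, cells were treated for 48 hours with each compound at five concentrations. Insufficient inhibition: endpoint recorded as highest concentration tested. The concentration for full growth arrest is given as TGI.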

Test systems include MDA-MB-231 breast; ACHN renal; A498 renal; NCI/ADR-RES ovarian; IGROV1 ovarian; U251 CNS; HCC-2998 colon; PC-3 prostate; K-562 leukemia; UACC-62 melanoma; CAKI-1 renal; SNB-75 CNS; HCT-15 colon; MALME-3M melanoma; EKVX NSCLC; OVCAR-8 ovarian; SK-MEL-2 melanoma.
Test in all cases: NCI anticancer screen, dose series, 48 h

Take `COc1ccc(S(=O)(=O)O)cc1-n1nc(C(=O)Nc2ccccc2)n[n+]1-c1cc(S(=O)(=O)[O-])ccc1OC`: the TGI in the test with MDA-MB-231 breast, in the test with ACHN renal, in the test on A498 renal, in the test with NCI/ADR-RES ovarian, in the test on IGROV1 ovarian and in the test with U251 CNS was more than 100 µM throughout. Besides, the TGI in the test on HCC-2998 colon, in the test with PC-3 prostate, in the test on K-562 leukemia, in the test on UACC-62 melanoma, in the test on CAKI-1 renal and with SNB-75 CNS was more than 100 µM in each case. Moreover, the TGI in the test with HCT-15 colon, in the test on MALME-3M melanoma and with EKVX NSCLC was more than 100 µM each time.

For `NCCCn1c2ccccc2c2c3c(c4c(c21)CCC(O)CC4)C(=O)NC3=O` (stereo not drawn), the TGI with OVCAR-8 ovarian was found to be 21.6 µM; in the test with MDA-MB-231 breast it was 14.4 µM; in the test on ACHN renal, 12.1 µM; with A498 renal, 22.8 µM; in the test with NCI/ADR-RES ovarian, 32.9 µM; in the test with IGROV1 ovarian, 21.5 µM. Further, the TGI in the test with U251 CNS turned out to be 13.1 µM; in the test with HCC-2998 colon it was 4.24 µM; with PC-3 prostate, 16.2 µM; in the test on K-562 leukemia, 8.5 µM; in the test with UACC-62 melanoma, 17.3 µM; with CAKI-1 renal, 16.6 µM. The TGI in the test with HCT-15 colon was 23 µM; in the test on MALME-3M melanoma it was 15.8 µM; with EKVX NSCLC, 23.7 µM; with SK-MEL-2 melanoma, 24.1 µM.

With `O=C(N=C1SCCN1C(=O)C(C(F)(F)F)C(F)(F)F)C(C(F)(F)F)C(F)(F)F`, the TGI in the test with OVCAR-8 ovarian, with MDA-MB-231 breast, with ACHN renal, with A498 renal, in the test with NCI/ADR-RES ovarian and in the test on IGROV1 ovarian was more than 100 µM in each case. Also, the TGI with U251 CNS, with HCC-2998 colon, in the test on PC-3 prostate, in the test on K-562 leukemia, in the test with CAKI-1 renal and in the test on HCT-15 colon was more than 100 µM throughout. For the same compound, the TGI in the test with MALME-3M melanoma, in the test with EKVX NSCLC and with SK-MEL-2 melanoma was more than 100 µM each time.

Take `COc1cccc(-c2ccc3c4c2O[C@H]2c5[nH]c6ccccc6c5C[C@@]5(O)[C@@H](C3)N(CC3CC3)CC[C@]425)c1`: the TGI with OVCAR-8 ovarian amounted to 3.11 µM; in the test on MDA-MB-231 breast it was 3.44 µM; in the test with ACHN renal, 2.98 µM; in the test on A498 renal, 6.83 µM; with NCI/ADR-RES ovarian it was 5.21 µM; in the test with IGROV1 ovarian it was 3.04 µM. Besides, the TGI was 3.15 µM with U251 CNS; 2.87 µM with HCC-2998 colon; 2.48 µM with PC-3 prostate; 4.98 µM in the test on K-562 leukemia; 3.05 µM with UACC-62 melanoma; 4.9 µM with CAKI-1 renal. Moreover, the TGI with HCT-15 colon came out at 3.7 µM; in the test with MALME-3M melanoma it was 2.88 µM; in the test with EKVX NSCLC, 9.5 µM; in the test on SK-MEL-2 melanoma, 3.69 µM.

`CCOC(=O)c1cc(C(=O)c2ccccc2)n2nc(-c3ccc(Cl)cc3)ccc12`: the TGI in the test with MDA-MB-231 breast was more than 100 µM; in the test on ACHN renal, 28.2 µM; in the test on A498 renal, 49 µM; in the test with NCI/ADR-RES ovarian, 81.8 µM; in the test with IGROV1 ovarian, 38.8 µM; with U251 CNS, 66.3 µM. Further, the TGI in the test on HCC-2998 colon was 51 µM; with PC-3 prostate, 30.4 µM; in the test with K-562 leukemia, more than 100 µM; in the test on UACC-62 melanoma, 39.3 µM; in the test with CAKI-1 renal it was 81.3 µM; in the test on HCT-15 colon, more than 100 µM. The TGI with MALME-3M melanoma stood at 46.3 µM; with EKVX NSCLC, 42.6 µM; with SK-MEL-2 melanoma it was 32.6 µM.

Consider `CCCCCC(=O)N[C@@H](c1ccccc1)C(O)C(=O)OC1C[C@@]2(O)C(OC(=O)c3ccccc3)C3[C@](C)(C(=O)[C@H](O)C(=C1C)C2(C)C)C(OC1OCC(O)C(O)C1O)C[C@H]1OC[C@@]31OC(C)=O` (stereo partly drawn), for which the TGI with OVCAR-8 ovarian, in the test with MDA-MB-231 breast, in the test with ACHN renal, with A498 renal, in the test with NCI/ADR-RES ovarian and with IGROV1 ovarian was more than 100 µM throughout. For the same compound, the TGI with U251 CNS was more than 100 µM; in the test with HCC-2998 colon, 10.5 µM; in the test with PC-3 prostate it was more than 86.4 µM; in the test with K-562 leukemia, more than 100 µM; with UACC-62 melanoma it was more than 100 µM; with SNB-75 CNS, 4.52 µM. In addition, the TGI is more than 100 µM with HCT-15 colon, more than 26.1 µM in the test on MALME-3M melanoma and more than 100 µM in the test with EKVX NSCLC.

Consider `c1ccc(-c2sc(-c3cccs3)cc2Cc2cccs2)cc1`, for which the TGI in the test with OVCAR-8 ovarian, in the test on MDA-MB-231 breast, with ACHN renal, in the test with NCI/ADR-RES ovarian, in the test on IGROV1 ovarian and with HCC-2998 colon was more than 10 µM in each case. The TGI in the test with PC-3 prostate, in the test with K-562 leukemia, with UACC-62 melanoma, in the test on CAKI-1 renal, in the test on SNB-75 CNS and in the test with HCT-15 colon was more than 10 µM in each case. The TGI in the test with MALME-3M melanoma and with EKVX NSCLC was more than 10 µM each time.

Consider `Clc1ccc(Cc2nc3ccc(CCN4CCN(c5ccccc5)CC4)cc3[nH]2)cc1`, for which the TGI with OVCAR-8 ovarian was 36.3 µM; with MDA-MB-231 breast, 27.3 µM; in the test with ACHN renal it was more than 100 µM; with A498 renal, 32.5 µM; in the test on NCI/ADR-RES ovarian, 51.6 µM; with IGROV1 ovarian it was 90.6 µM. For the same compound, the TGI in the test on U251 CNS is 26.5 µM; with PC-3 prostate, more than 100 µM; in the test with K-562 leukemia, 30.6 µM; in the test with UACC-62 melanoma, 33.6 µM; with CAKI-1 renal it was 38.6 µM; in the test with SNB-75 CNS, 38.3 µM. Besides, the TGI is 39.8 µM in the test with HCT-15 colon, 32.9 µM in the test on MALME-3M melanoma, 79.9 µM in the test on EKVX NSCLC and 30.6 µM in the test with SK-MEL-2 melanoma.

For `Cc1c(C(=O)N2CCN(c3ccc([N+](=O)[O-])cc3)CC2)[n+](=O)c2cc(Cl)c(Cl)cc2n1[O-]`, the TGI was determined as 33 µM in the test with OVCAR-8 ovarian; 46.7 µM in the test with MDA-MB-231 breast; 26.3 µM in the test with ACHN renal; 23.1 µM with A498 renal; 32.7 µM with NCI/ADR-RES ovarian; 42.7 µM with IGROV1 ovarian. The TGI in the test with U251 CNS was 61.5 µM; with HCC-2998 colon, 33.2 µM; with PC-3 prostate it was 45 µM; with K-562 leukemia, more than 100 µM; in the test on UACC-62 melanoma it was 34 µM; with CAKI-1 renal, 64.3 µM. The TGI is 36.2 µM with HCT-15 colon, 48.4 µM in the test with MALME-3M melanoma, 41.1 µM with EKVX NSCLC and more than 100 µM in the test with SK-MEL-2 melanoma.
